Measured values: patent US10106498B2, “Compositions relating to vitamin D” (Siemens Healthcare Diagnostics Inc., priority 2014, dated 2018)
Several values for one entry are separate records, joined by “and”; a condition that tells them apart may be missing. Equal values may be shown once.

Tested on: biotinylated monoclonal anti-25OH vitamin D antibody
Experiment: LOCI 25(OH)D immunoassay: 3-epimer cross-reactivity, no anti-3-epimer antibody added
Type: binding, sheep
Details: for Avg. Cross-reactivity, No anti-3-epimer VD Ab Added: average of ten patient sera spiked with 100 ng/mL 3-epimer vitamin D3
Protocol: The 25OH Vitamin D (25(OH)D) immunoassay format employed was a homogeneous competitive chemiluminescent immunoassay based on LOCI® assay technology. The assay was performed on the Siemens Dimension® EXL automated integrated clinical chemistry system (Siemens Healthcare Diagnostics Inc., Deerfield, Ill.). The assay measured the total concentration of 25(OH)D2 and/or 25(OH)D3 in serum and plasma samples. The LOCI® assay reagents included a releasing reagent, two synthetic bead reagents and a biotinylated monoclonal anti-25OH vitamin D antibody reagent. The first bead reagent (designated “Sensibeads”) was coated with streptavidin and contained a photosensitive dye. The second bead reagent (designated “Chemibeads”) was coated with a 25(OH)D3 analog and contained chemiluminescent dye. Sample was incubated with the releasing reagent to release 25(OH)D molecules including 3-epimeric compounds from vitamin D binding proteins. The reaction mixture was then incubated with biotinylated antibody to form a 25(OH)D-biotinylated antibody complex. […] Chemibeads were added to bind excess free biotinylated antibody. Sensibeads were then added to bind to the biotin portion of the biotinylated antibody. Aggregates of Chemibead-analog/antibody-biotin/streptavidin-Sensibeads were formed as a result. Illumination of the reaction mixture with light at 680 nm generates singlet oxygen from Sensibeads, which diffused into the Chemibeads and triggered a chemiluminescent reaction. The resulting chemiluminescent signal was measured at 612 nm and is inversely proportional to the concentration of total 25(OH)D in the sample.
The effect of adding anti-3-epimer-VD antibody 8F10.1 (anti-3-epimer VD Ab) on the 3-epimer cross-reactivity for the assay is shown in Table 1. […] The 3-epimer cross-reactivity was calculated by the difference between 25(OH)D2 or 25(OH)D3 values with and without the spiked 3-epimer compound divided by the amount of added 3-epimer compound.

C=C1CC[C@@H](O)C/C1=C/C=C1\CCC[C@]2(C)[C@@H]([C@H](C)CCCC(C)(C)O)CC[C@@H]12 [3-epimer D3, 3-epi-25-hydroxyvitamin D3]
Avg. Cross-reactivity, No anti-3-epimer VD Ab Added: 13.7%
Avg. Cross-reactivity, No anti-3-epimer VD Ab Added (listed as 3-epimer vitamin D3 compound): 13.7%
Cross-Reactivity, No anti-3-epimer VD Ab Added (individual patient sera (Sample ID 1-10) spiked with 100 ng/mL 3-epimer vitamin D3): 17.9% (2×) and 11.9% and 12.6% and 16.1% and 10.2% and 9.1% and 10.5% and 15.3% and 15.5%
